Consider four compounds from patent US11053244B1, “4-azaindole compounds” (BRISTOL-MYERS SQUIBB COMPANY, priority 2017, dated 2021).

The pIC50 is −log10 of the IC50, conventionally taken in molar units.

One assay addresses TLR7 (Mus musculus (Mouse), UniProt P58681). Kind of assay: In vivo mouse TLR7 PD model (gardiquimod-induced plasma IL-6 and IFN-alpha). The note with it: plasma 90 min after gardiquimod, vs vehicle. As to the method: In Vivo Mouse TLR7 PD Model:
Adult male C5-7BL/6 mice were used for the experiments. Mice (7 to 10 per group) were randomized into different treatment groups based on body weight. Mice from the respective treatment groups were administered orally with vehicle or test compound. Thirty min after the oral administration of vehicle or test compound, mice were challenged with intraperitoneal injection of gardiquimod for TLR7 PD model. Ninety minutes after gardiquimod injection, mice were bled under isoflurane anaesthesia and plasma IL-6 and IFN-alpha levels were estimated by using commercially available ELISA kit (BD Biosciences, PBL Life Sciences). At the end of experiment, mean cytokine data was plotted and one way ANOVA with Dunnett's test was performed to calculate the significance of test compound treated group vs. vehicle control group. Percent inhibition of cytokine induction was calculated for test compound treated group vs vehicle control group.

For the next assay, the target named is human TLR8 (Homo sapiens (Human), UniProt Q9NR97). Kind of assay: TLR8 inhibition reporter assay (HEK-Blue cells, SEAP reporter, R848 stimulation). The note with it: read-out: TLR8 IC50.
Sequence of human TLR8 (Q9NR97 27-1041): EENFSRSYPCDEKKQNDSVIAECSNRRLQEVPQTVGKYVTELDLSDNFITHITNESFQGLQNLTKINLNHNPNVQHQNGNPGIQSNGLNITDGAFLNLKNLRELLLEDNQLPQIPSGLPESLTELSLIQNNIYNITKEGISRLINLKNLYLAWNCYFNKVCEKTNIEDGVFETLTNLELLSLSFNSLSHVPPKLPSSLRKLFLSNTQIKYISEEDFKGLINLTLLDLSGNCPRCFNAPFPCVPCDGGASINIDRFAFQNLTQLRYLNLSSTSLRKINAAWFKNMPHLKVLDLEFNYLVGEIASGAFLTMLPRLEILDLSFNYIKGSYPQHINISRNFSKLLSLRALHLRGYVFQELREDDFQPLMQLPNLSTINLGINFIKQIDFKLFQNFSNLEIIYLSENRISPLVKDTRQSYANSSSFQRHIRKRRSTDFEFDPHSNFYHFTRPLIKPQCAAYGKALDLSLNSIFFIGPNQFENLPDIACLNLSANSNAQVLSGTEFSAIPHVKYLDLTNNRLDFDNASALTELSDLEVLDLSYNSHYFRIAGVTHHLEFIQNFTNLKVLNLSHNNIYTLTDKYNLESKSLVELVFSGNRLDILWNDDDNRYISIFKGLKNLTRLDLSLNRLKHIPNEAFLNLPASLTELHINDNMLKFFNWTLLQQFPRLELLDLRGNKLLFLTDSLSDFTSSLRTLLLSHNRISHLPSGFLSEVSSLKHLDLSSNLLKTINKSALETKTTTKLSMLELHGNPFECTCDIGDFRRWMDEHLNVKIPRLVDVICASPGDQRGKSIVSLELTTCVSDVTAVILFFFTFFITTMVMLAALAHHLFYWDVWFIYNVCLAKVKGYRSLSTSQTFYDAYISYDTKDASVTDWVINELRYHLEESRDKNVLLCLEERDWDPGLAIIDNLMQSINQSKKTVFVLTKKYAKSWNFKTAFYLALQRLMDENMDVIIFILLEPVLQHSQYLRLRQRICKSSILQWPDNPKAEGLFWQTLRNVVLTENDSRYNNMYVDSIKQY
A further assay has as its target human TLR7 (Homo sapiens (Human), UniProt Q9NYK1). Kind of assay: TLR7 inhibition reporter assay (HEK-Blue cells, SEAP reporter, gardiquimod stimulation). Format: cell-based. On the technique in general: Reporter assays use an easily measured gene product as a stand-in for the process of interest.
A further assay deals with human TLR9 (Homo sapiens (Human), UniProt Q9NR96). Kind of assay: TLR9 inhibition reporter assay (HEK-Blue cells, SEAP reporter, ODN2006 stimulation). The note with it: read-out: TLR9 IC50.
Sequence of human TLR9 (Q9NR96 26-1032): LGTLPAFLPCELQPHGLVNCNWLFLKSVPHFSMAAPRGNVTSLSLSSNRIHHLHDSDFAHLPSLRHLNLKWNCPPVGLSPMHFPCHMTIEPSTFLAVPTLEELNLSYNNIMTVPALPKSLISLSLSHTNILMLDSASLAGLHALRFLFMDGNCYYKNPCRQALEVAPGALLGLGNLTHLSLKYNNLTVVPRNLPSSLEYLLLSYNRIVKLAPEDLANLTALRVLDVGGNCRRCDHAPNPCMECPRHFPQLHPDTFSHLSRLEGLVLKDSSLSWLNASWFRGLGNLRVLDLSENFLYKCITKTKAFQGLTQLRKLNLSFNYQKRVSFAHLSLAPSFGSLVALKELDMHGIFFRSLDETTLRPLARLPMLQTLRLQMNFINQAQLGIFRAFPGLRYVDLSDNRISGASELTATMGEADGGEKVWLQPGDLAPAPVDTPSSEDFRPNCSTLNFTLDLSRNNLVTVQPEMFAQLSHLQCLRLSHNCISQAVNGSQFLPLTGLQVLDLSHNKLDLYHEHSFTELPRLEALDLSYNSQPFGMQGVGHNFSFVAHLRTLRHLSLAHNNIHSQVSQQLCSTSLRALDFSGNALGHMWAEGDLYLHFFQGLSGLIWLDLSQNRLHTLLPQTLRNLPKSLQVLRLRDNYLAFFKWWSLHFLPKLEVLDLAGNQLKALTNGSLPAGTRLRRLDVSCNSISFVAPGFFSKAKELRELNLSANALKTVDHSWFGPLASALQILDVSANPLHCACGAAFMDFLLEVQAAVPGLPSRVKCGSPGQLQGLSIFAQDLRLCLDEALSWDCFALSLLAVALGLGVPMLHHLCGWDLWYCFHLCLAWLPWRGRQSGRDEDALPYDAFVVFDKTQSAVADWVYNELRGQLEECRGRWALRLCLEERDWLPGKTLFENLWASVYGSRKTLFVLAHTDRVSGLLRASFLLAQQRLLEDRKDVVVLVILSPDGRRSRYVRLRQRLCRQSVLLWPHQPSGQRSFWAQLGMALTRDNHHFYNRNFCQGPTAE
Setting [1] is: oral dose 0.005 mg/kg 30 min before i.p. gardiquimod.
Setting [2] is: oral dose 0.01 mg/kg 30 min before i.p. gardiquimod.
Where [3] appears, read: oral dose 0.05 mg/kg 30 min before i.p. gardiquimod.
[4] abbreviates: oral dose 0.25 mg/kg 30 min before i.p. gardiquimod.
Where [5] appears, read: oral dose 0.5 mg/kg 30 min before i.p. gardiquimod.
Setting [6] is: oral dose 0.0015 mg/kg 30 min before i.p. gardiquimod.
[7] abbreviates: oral dose 0.003 mg/kg 30 min before i.p. gardiquimod.
Where [8] appears, read: oral dose 0.015 mg/kg 30 min before i.p. gardiquimod.
Setting [9] is: oral dose 0.075 mg/kg 30 min before i.p. gardiquimod.
Setting [10] is: oral dose 0.15 mg/kg 30 min before i.p. gardiquimod.
Setting [11] is: oral dose 0.006 mg/kg 30 min before i.p. gardiquimod.
Where [12] appears, read: oral dose 0.03 mg/kg 30 min before i.p. gardiquimod.
The mark [13] stands for this setting: oral dose 0.3 mg/kg 30 min before i.p. gardiquimod.

pIC50: −log10 of the molar value.

Sequence of TLR7 (P58681 27-1050): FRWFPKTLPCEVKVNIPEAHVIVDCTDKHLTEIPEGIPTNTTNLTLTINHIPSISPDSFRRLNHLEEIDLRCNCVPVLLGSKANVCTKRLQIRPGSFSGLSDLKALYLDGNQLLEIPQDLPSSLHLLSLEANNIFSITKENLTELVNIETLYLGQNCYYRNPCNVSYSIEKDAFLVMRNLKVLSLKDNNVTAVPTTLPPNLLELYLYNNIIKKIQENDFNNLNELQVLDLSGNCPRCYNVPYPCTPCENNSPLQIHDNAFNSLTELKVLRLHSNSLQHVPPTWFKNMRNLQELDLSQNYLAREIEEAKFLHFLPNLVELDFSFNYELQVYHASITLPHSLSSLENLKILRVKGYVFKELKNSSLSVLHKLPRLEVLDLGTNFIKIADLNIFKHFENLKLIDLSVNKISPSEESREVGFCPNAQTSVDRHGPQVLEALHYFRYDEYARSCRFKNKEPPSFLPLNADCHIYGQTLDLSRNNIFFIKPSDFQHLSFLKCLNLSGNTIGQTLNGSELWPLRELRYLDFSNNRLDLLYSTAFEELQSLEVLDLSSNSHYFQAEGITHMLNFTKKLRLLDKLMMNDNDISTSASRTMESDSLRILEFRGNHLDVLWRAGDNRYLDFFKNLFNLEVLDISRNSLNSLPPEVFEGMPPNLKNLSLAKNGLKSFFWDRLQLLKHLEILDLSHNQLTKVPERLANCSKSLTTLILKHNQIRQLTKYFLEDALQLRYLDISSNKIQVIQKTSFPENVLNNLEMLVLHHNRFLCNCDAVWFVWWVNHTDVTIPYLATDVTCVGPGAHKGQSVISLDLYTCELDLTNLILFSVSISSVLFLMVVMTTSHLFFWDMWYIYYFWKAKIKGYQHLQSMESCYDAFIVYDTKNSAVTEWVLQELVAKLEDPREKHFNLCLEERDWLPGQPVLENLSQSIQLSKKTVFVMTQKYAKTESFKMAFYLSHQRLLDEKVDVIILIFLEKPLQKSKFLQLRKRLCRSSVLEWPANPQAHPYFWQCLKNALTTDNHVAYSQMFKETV
Sequence of human TLR7 (Q9NYK1 27-1049): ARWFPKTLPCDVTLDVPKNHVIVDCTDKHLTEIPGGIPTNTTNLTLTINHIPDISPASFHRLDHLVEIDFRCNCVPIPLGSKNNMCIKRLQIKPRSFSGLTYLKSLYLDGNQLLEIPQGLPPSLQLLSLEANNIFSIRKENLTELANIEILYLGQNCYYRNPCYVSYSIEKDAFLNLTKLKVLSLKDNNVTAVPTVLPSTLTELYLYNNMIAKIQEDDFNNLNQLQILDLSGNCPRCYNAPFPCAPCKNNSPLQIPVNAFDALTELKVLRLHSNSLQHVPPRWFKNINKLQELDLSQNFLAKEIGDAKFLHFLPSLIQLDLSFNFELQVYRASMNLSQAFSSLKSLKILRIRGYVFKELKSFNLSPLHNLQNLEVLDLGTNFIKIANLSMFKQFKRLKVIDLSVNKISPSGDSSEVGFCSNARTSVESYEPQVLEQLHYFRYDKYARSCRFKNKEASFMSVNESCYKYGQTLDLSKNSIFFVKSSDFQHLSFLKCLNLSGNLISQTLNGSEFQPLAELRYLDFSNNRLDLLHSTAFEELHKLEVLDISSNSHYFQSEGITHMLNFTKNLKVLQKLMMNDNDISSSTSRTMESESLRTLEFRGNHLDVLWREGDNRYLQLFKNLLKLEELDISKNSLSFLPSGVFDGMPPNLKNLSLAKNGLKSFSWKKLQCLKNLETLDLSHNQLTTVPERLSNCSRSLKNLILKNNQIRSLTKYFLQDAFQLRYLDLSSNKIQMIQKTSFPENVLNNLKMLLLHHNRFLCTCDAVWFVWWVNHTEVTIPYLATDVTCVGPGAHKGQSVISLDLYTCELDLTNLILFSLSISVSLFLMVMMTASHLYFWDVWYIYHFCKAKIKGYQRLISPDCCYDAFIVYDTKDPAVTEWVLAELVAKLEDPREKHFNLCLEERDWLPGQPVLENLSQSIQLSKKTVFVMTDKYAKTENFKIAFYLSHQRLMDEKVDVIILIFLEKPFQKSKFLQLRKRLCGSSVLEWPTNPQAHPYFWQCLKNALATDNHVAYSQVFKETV
Experimental for human TLR7: (§1) HEK-Blue™-cells (Invivogen) overexpressing human TLR7, TLR8 or TLR9 receptors were used for screening inhibitors of these receptors using an inducible SEAP (secreted embryonic alkaline phosphatase) reporter gene under the control of the IFN-β minimal promoter fused to five NF-κB and AP-1-binding sites. Briefly, cells are seeded into Greiner 384 well plates (15000 cells per well for TLR7, 20,000 for TLR8 and 25,000 for TLR9) and then treated with test compounds in DMSO to yield a final dose response concentration range of 0.05 nM-50 μM. After a 30 minute compound pre-treatment at room temperature, the cells are then stimulated with a TLR7 ligand (gardiquimod at a final concentration of 7.5 μM), TLR8 ligand (R848 at a final concentration of 15.9 μM) or TLR9 ligand (ODN2006 at a final concentration of 5 nM) to activate NF-κB and AP-1 which induce the production of SEAP. After a 22 hour incubation at 37° C., 5% CO2, SEAP levels are determined with the addition of HEK-Blue™ Detection reagent (Invivogen), a cell culture medium that allows for detection of SEAP, according to manufacturer's specifications.
Experimental for human TLR8: TLR7/8/9 Inhibition Reporter Assays
as §1
Experimental for human TLR9: TLR7/8/9 Inhibition Reporter Assays
as §1

Regarding `Cc1c(-c2[nH]c3ccc(N4CCN(C(=O)CN(C)C)CC4)nc3c2C(C)C)cn2ncnc2c1C` [Example 3, 1-(4-(2-(7,8-dimethyl-[1,2,4]triazolo[1,5-a]pyridin-6-yl)-3-isopropyl-1H-pyrrolo[3,2-b]pyridin-5-yl)piperazin-1-yl)-2-(dimethylamino)ethan-1-one], the “% inhibition of IFN-alpha” value at TLR7 (setting [1]) is listed as 29%; on TLR7 (setting [2]), 37%; on TLR7 (setting [3]), 94%; on TLR7 (setting [4]) it was 99%; on TLR7 (setting [5]), 100%. Besides, the “% inhibition of IL6” value at TLR7 (setting [1]) was found to be 0%; at TLR7 (setting [2]), 24%; at TLR7 (setting [3]), 75%; at TLR7 (setting [4]) it was 90%; on TLR7 (setting [5]), 91%.
Consider `Cc1c(-c2[nH]c3ccc(C4CCC(NCC5(S(C)(=O)=O)CC5)CC4)nc3c2C(C)C)cn2ncnc2c1C` (stereo not drawn) [Example 4, 4-(2-(7,8-dimethyl-[1,2,4]triazolo[1,5-a]pyridin-6-yl)-3-isopropyl-1H-pyrrolo[3,2-b]pyridin-5-yl)-N-((1-(methylsulfonyl)cyclopropyl)methyl)cyclohexan-1-amine], for which the “% inhibition of IFN-alpha” value on TLR7 (setting [6]) was found to be 0%; at TLR7 (setting [7]), 33%; at TLR7 (setting [8]), 74%; at TLR7 (setting [9]), 93%; on TLR7 (setting [10]), 99%. Moreover, the “% inhibition of IL6” value on TLR7 (setting [6]) is reported as 0%; at TLR7 (setting [7]), 23%; on TLR7 (setting [8]), 75%; at TLR7 (setting [9]), 76%; at TLR7 (setting [10]) it was 95%.
With `Cc1c(-c2[nH]c3ccc(C4CCC(N5CC6(C5)CS(=O)(=O)C6)CC4)nc3c2C(C)C)cn2ncnc2c1C` (stereo not drawn) [Example 438, 6-((1r,4r)-(4-(2-(7,8-dimethyl-[1,2,4]triazolo[1,5-a]pyridin-6-yl)-3-isopropyl-1H-pyrrolo[3,2-b]pyridin-5-yl)cyclohexyl)-2-thia-6-azaspiro[3.3]heptane 2,2-dioxide], the “% inhibition of IFN-alpha” value was found to be 36% at TLR7 (setting [7]); 57% at TLR7 (setting [11]); 67% at TLR7 (setting [12]); 96% on TLR7 (setting [10]); 98% at TLR7 (setting [13]). In addition, the “% inhibition of IL6” value on TLR7 (setting [7]) turned out to be 25%; on TLR7 (setting [11]), 41%; on TLR7 (setting [12]) it was 56%; on TLR7 (setting [10]), 78%; on TLR7 (setting [13]) it was 82%.
With `Cc1c(-c2[nH]c3ccc(N4C[C@H]5C[C@@H]4CN5C4CCOC4)nc3c2C(C)C)cn2ncnc2c1C` (stereo partly drawn) [Example 771], the negative-log IC50 (pIC50) on human TLR8 is 8.04; at human TLR7, 8.37; at human TLR9, 5.01.
